Test results taken from patent publication US20030166653A1, “Novel form of (r)-n-[5-methyl-8-(4-methylpiperazin-1-yl)-1,2,3,4-tetrahydro-2-naphthyl]-4-morpholinobenzamide” (priority 2003, published 2003).
Blank lines part the entries; values can stand above or below the molecule they belong to.

Key:
Type in all cases: physicochemical
[1] = Stability of bulk drug substance (HPLC purity) in daylight and at 90° C.; settings: for HPLC Purity (100% - related substances): bulk
Experimental: The stability of [5-Methyl-8-(4-methylpiperazin-1-yl)-1,2,3,4-tetrahydro-2-naphtyl]-4-morpholinobenzamide(=“Base” in tables below) and (R)-N-[5-methyl-8-(4-methylpiperazin-1-yl)-1,2,3,4-tetrahydro-2-naphtyl]-4-morpholinobenzamide monohydrobromide Form A (=“Form A” in tables below), as bulk drug substance and in solutions at different pH levels after exposure to daylight and at elevated temperatures, has been studied. The bulk substances are very stable, both in daylight and at 90° C. There are no significant differences between the HPLC purity of [5-Methyl-8-(4-methylpiperazin-1-yl)-1,2,3,4-tetrahydro-2-naphtyl]-4-morpholinobenzamide (=Base) and (R)-N-[5-methyl-8-(4-methylpiperazin-1-yl)-1,2,3,4-tetrahydro-2-naphtyl]-4-morpholinobenzamide monohydrobromide Form A (=Form A) at the tested conditions.

[2] = Stability of solution in 0.1 M HCl, pH 1.1, HPLC assay
Text: (§1) The stability of [5-Methyl-8-(4-methylpiperazin-1-yl)-1,2,3,4-tetrahydro-2-naphtyl]-4-morpholinobenzamide(=“Base” in tables below) and (R)-N-[5-methyl-8-(4-methylpiperazin-1-yl)-1,2,3,4-tetrahydro-2-naphtyl]-4-morpholinobenzamide monohydrobromide Form A (=“Form A” in tables below), as bulk drug substance and in solutions at different pH levels after exposure to daylight and at elevated temperatures, has been studied. Three solutions were made from each batch of drug substance. One solution in pure water, one in 0.1 mM HCl (pH 4.1) and one in 0.1 M HCl (pH 1.1). The content of [5-Methyl-8-(4-methylpiperazin-1-yl)-1,2,3,4-tetrahydro-2-naphtyl]-4-morpholinobenzamide (=Base) was determined by HPLC, all results are calculated as the base.

[3] = Stability of solution in 0.1 mM HCl, pH 4.1, HPLC assay
Text: as §1

[4] = Solubility in water by HPLC-analysis
[5] = Water sorption by dynamic vapour sorption (DVS); settings: for hygroscopicity / water uptake in words: solid state characterization, monohydrobromide
[6] = Stability in water solutions (pH not adjusted), HPLC assay
Text: as §1

[7] = daylight RT, 14 days, % of start
[8] = daylight RT, 23 days, % of start

HPLC Purity (100% - related substances) ([1]; 90° C., 2 days): 99.6%
HPLC Purity (100% - related substances) ([1]; 90° C., 8 days): 99.6%
HPLC Purity (100% - related substances) ([1]; 90° C., 14 days): 99.5%
HPLC Purity (100% - related substances) ([1]; 90° C., 21 days): 99.6%
HPLC Purity (100% - related substances) ([1]; 90° C., 30 days): 99.4%
HPLC Purity (100% - related substances) ([1]; 90° C., Start): 99.7%
HPLC Purity (100% - related substances) ([1]; daylight, RT, 8 days): 99.6%
HPLC Purity (100% - related substances) ([1]; daylight, RT, 14 days): 99.5%
HPLC Purity (100% - related substances) ([1]; daylight, RT, 21 days): 99.5%
HPLC Purity (100% - related substances) ([1]; daylight, RT, 30 days): 99.5%
HPLC Purity (100% - related substances) ([1]; daylight, RT, Start): 99.7%
stability of bulk substance in words ([1]; in daylight and at 90° C.): very stable
Solution in 0.1 M HCl, pH 1.1, assay ([2]; 5° C., 8 days, % of start): 100%
Solution in 0.1 M HCl, pH 1.1, assay ([2]; 5° C., 14 days, % of start): 100%
Solution in 0.1 M HCl, pH 1.1, assay ([2]; 5° C., 23 days, % of start): 98%
Solution in 0.1 M HCl, pH 1.1, assay ([2]; 5° C., Start): 0.504 mg base/ml
Solution in 0.1 M HCl, pH 1.1, assay ([2]; 5° C., Start, % of start): (100%)
Solution in 0.1 M HCl, pH 1.1, assay ([2]; 60° C., 2 days, % of start): 100%
Solution in 0.1 M HCl, pH 1.1, assay ([2]; 60° C., 8 days, % of start): 97%
Solution in 0.1 M HCl, pH 1.1, assay ([2]; 60° C., 14 days, % of start): 95%
Solution in 0.1 M HCl, pH 1.1, assay ([2]; 60° C., 23 days, % of start): 88%
Solution in 0.1 M HCl, pH 1.1, assay ([2]; 60° C., Start): 0.504 mg base/ml
Solution in 0.1 M HCl, pH 1.1, assay ([2]; 60° C., Start, % of start): (100%)
Solution in 0.1 M HCl, pH 1.1, assay ([2]; Dark RT, 8 days, % of start): 101%
Solution in 0.1 M HCl, pH 1.1, assay ([2]; Dark RT, 14 days, % of start): 99%
Solution in 0.1 M HCl, pH 1.1, assay ([2]; Dark RT, 23 days, % of start): 98%
Solution in 0.1 M HCl, pH 1.1, assay ([2]; Dark RT, Start): 0.504 mg base/ml
Solution in 0.1 M HCl, pH 1.1, assay ([2]; Dark RT, Start, % of start): (100%)
Solution in 0.1 M HCl, pH 1.1, assay [2, 7]: 100%
Solution in 0.1 M HCl, pH 1.1, assay [2, 8]: 98%
Solution in 0.1 M HCl, pH 1.1, assay ([2]; daylight RT, Start): 0.504 mg base/ml
Solution in 0.1 M HCl, pH 1.1, assay ([2]; daylight RT, Start, % of start): (100%)
stability in solution in words ([2]; pH 1.1, except at 60° C.): good
Solution in 0.1 mM HCl, pH 4.1, assay ([3]; 5° C., 8 days, % of start): 100%
Solution in 0.1 mM HCl, pH 4.1, assay ([3]; 5° C., 14 days, % of start): 100%
Solution in 0.1 mM HCl, pH 4.1, assay ([3]; 5° C., 23 days, % of start): 100%
Solution in 0.1 mM HCl, pH 4.1, assay ([3]; 5° C., Start): 0.0490 mg base/ml
Solution in 0.1 mM HCl, pH 4.1, assay ([3]; 5° C., Start, % of start): (100%)
Solution in 0.1 mM HCl, pH 4.1, assay ([3]; 60° C., 2 days, % of start): 97%
Solution in 0.1 mM HCl, pH 4.1, assay ([3]; 60° C., 8 days, % of start): 93%
Solution in 0.1 mM HCl, pH 4.1, assay ([3]; 60° C., 14 days, % of start): 90%
Solution in 0.1 mM HCl, pH 4.1, assay ([3]; 60° C., 23 days, % of start): 81%
Solution in 0.1 mM HCl, pH 4.1, assay ([3]; 60° C., Start): 0.0490 mg base/ml
Solution in 0.1 mM HCl, pH 4.1, assay ([3]; 60° C., Start, % of start): (100%)
Solution in 0.1 mM HCl, pH 4.1, assay ([3]; Dark RT, 8 days, % of start): 99%
Solution in 0.1 mM HCl, pH 4.1, assay ([3]; Dark RT, 14 days, % of start): 99%
Solution in 0.1 mM HCl, pH 4.1, assay ([3]; Dark RT, 23 days, % of start): 98%
Solution in 0.1 mM HCl, pH 4.1, assay ([3]; Dark RT, Start): 0.0490 mg base/ml
Solution in 0.1 mM HCl, pH 4.1, assay ([3]; Dark RT, Start, % of start): (100%)
Solution in 0.1 mM HCl, pH 4.1, assay [3, 7]: 99%
Solution in 0.1 mM HCl, pH 4.1, assay [3, 8]: 97%
Solution in 0.1 mM HCl, pH 4.1, assay ([3]; daylight RT, Start): 0.0490 mg base/ml
Solution in 0.1 mM HCl, pH 4.1, assay ([3]; daylight RT, Start, % of start): (100%)
stability in solution in words ([3]; pH 4.1, except at 60° C.): good
solubility in water in words [4]: satisfactory
solubility in water ([4]; as the free base by HPLC-analysis): 6400 µg/mL
water sorbed as measured by dynamic vapour sorption (DVS) ([5]; 80% RH and 25° C.): 0,8%
hygroscopicity / water uptake in words [5]: non-hygroscopic
Stability in water solutions, assay ([6]; 5° C., 8 days, % of start): 101%
Stability in water solutions, assay ([6]; 5° C., 14 days, % of start): 100%
Stability in water solutions, assay ([6]; 5° C., 23 days, % of start): 99%
Stability in water solutions, assay ([6]; 5° C., Start): 0.0248 mg base/ml
Stability in water solutions, assay ([6]; 5° C., Start, % of start): (100%)
Stability in water solutions, assay ([6]; 60° C., 2 days, % of start): 84%
Stability in water solutions, assay ([6]; 60° C., 8 days, % of start): 81%
Stability in water solutions, assay ([6]; 60° C., 14 days, % of start): 76%
Stability in water solutions, assay ([6]; 60° C., 23 days, % of start): 82%
Stability in water solutions, assay ([6]; 60° C., Start): 0.0248 mg base/ml
Stability in water solutions, assay ([6]; 60° C., Start, % of start): (100%)
stability in pure water solution, comparison in words ([6]; 60° C., pH not adjusted): less stable than the Base
Stability in water solutions, assay ([6]; Dark RT, 8 days, % of start): 99%
Stability in water solutions, assay ([6]; Dark RT, 14 days, % of start): 99%
Stability in water solutions, assay ([6]; Dark RT, 23 days, % of start): 97%
Stability in water solutions, assay ([6]; Dark RT, Start): 0.0248 mg base/ml
Stability in water solutions, assay ([6]; Dark RT, Start, % of start): (100%)
Stability in water solutions, assay ([6]; daylight RT, 8 days, % of start): 100%
Stability in water solutions, assay [6, 7]: 101%
Stability in water solutions, assay [6, 8]: 100%
Stability in water solutions, assay ([6]; daylight RT, Start): 0.0248 mg base/ml
Stability in water solutions, assay ([6]; daylight RT, Start, % of start): (100%)
SMILES: Br.Cc1ccc(N2CCN(C)CC2)c2c1CC[C@@H](NC(=O)c1ccc(N3CCOCC3)cc1)C2 [Form A, (R)-N-[5-methyl-8-(4-methylpiperazin-1-yl)-1,2,3,4-tetrahydro-2-naphtyl]-4-morpholinobenzamide monohydrobromide]

hygroscopicity / water uptake in words [5]: readily resorbs water again
SMILES: Br.Cc1ccc(N2CCN(C)CC2)c2c1CC[C@@H](NC(=O)c1ccc(N3CCOCC3)cc1)C2 [Form B, (R)-N-[5-methyl-8-(4-methylpiperazin-1-yl)-1,2,3,4-tetrahydro-2-naphtyl]-4-morpholinobenzamide monohydrobromide]
